Assay results as given in PMC8708872, “Discovery of a Novel Template, 7-Substituted 7-Deaza-4′-Thioadenosine Derivatives as Multi-Kinase Inhibitors” (Pharmaceuticals, 2021).
pIC50, pKi: −log10 of the molar value.

Columns and labels:
[1] = system: human normal dermal fibroblast cells; assay: Antiproliferative activity against normal cells; format: cell-based; conditions: cultured human normal primary dermal fibroblast cells; read-out: IC50 growth inhibition, normal dermal fibroblast cells
[2] = Metabolic stability in human liver microsomes; format: in vitro ADME; conditions: % remaining during 30 min, 1 μM
CYP1A2 = target: T1, CYP1A2 (Homo sapiens, UniProt P05177); assay: CYP inhibition assay; format: in vitro ADME; conditions: human liver microsomes
T1 construct: Human liver microsomes (0.25 mg/mL); from tissue; host or cells: human liver microsomes
T1 sequence (P05177 whole entry): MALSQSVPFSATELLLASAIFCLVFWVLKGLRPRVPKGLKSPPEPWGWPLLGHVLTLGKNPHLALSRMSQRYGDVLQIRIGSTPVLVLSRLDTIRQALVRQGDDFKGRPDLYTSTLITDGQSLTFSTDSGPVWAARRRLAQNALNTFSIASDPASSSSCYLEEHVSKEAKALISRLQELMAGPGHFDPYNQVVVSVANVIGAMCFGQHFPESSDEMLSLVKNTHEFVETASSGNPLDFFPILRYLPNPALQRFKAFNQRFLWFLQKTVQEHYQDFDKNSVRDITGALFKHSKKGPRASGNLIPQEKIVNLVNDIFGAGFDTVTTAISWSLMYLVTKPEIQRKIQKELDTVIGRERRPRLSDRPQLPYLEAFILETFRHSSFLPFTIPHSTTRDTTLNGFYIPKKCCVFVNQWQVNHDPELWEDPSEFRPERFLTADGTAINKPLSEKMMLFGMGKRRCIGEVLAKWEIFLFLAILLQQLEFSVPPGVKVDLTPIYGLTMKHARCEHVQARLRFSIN
Experimental: (§1) Human liver microsomes (0.25 mg/mL), 0.1 M phosphate buffer (pH 7.4), a cocktail of five […] substrates (Phenacetin 50 μM, Diclofenac 10 μM, S-mephenytoin 100 μM, Dextromethorphan 5 μM, Midazolam 2.5 μM), and test compound (10 μM concentration) was pre-incubated for 5 min at 37 °C. NADPH generation system solution was added and incubated for 15 min at 37 °C. In order to terminate the reaction, acetonitrile solution containing an internal standard (Terfenadine) was added and centrifuged for 5 min (14,000× g […], 4 °C). The supernatant was injected into the LC-MS/MS system to analyze the metabolites of the substrates simultaneously. Metabolites of each substrate produced during the reaction were analyzed using the Shimadzu Nexera XR system and TSQ vantage (Thermo). Kinetex C18 column (2.1 × 100 mm, 2.6 μm particle size; Phenomenex, USA) was used for HPLC. The mobile phase used contained 0.1% formic acid in distilled water (A) and 0.1% formic acid containing acetonitrile (B). The generated metabolites were quantified using MRM (Multiple Reaction Monitoring) and Xcalibur (version 1.6.1) was used for data analysis.

CYP2C19 = target: T2, CYP2C19 (Homo sapiens, UniProt P33261); assay: CYP inhibition assay; format: in vitro ADME; conditions: human liver microsomes
T2 construct: Human liver microsomes (0.25 mg/mL); from tissue; host or cells: human liver microsomes
T2 sequence (P33261 whole entry): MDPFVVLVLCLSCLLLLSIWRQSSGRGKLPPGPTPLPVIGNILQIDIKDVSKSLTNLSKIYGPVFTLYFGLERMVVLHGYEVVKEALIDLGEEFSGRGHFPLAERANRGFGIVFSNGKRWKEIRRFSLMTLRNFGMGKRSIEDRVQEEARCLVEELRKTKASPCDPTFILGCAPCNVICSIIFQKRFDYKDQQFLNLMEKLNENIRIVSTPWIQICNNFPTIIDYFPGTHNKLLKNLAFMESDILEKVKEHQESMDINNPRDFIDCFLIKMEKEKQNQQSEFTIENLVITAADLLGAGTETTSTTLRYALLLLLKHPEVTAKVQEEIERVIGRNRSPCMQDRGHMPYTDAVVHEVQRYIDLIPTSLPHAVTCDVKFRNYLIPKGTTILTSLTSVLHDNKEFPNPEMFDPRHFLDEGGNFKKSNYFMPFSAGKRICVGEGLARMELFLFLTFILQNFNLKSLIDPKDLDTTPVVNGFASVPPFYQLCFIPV
Experimental: as §1

CYP2C9 = target: T3, CYP2C9 (Homo sapiens, UniProt P11712); assay: CYP inhibition assay; format: in vitro ADME; conditions: human liver microsomes
T3 construct: Human liver microsomes (0.25 mg/mL); from tissue; host or cells: human liver microsomes
Experimental: as §1

TRKA = target: T4, TRKA (Homo sapiens, UniProt P04629); assay: Kinase inhibition profile, KINOMEscan 11-point dose response; format: binding
T4 construct: purchased Eurofins DiscoverX Corporation
T4 sequence (P04629 33-796): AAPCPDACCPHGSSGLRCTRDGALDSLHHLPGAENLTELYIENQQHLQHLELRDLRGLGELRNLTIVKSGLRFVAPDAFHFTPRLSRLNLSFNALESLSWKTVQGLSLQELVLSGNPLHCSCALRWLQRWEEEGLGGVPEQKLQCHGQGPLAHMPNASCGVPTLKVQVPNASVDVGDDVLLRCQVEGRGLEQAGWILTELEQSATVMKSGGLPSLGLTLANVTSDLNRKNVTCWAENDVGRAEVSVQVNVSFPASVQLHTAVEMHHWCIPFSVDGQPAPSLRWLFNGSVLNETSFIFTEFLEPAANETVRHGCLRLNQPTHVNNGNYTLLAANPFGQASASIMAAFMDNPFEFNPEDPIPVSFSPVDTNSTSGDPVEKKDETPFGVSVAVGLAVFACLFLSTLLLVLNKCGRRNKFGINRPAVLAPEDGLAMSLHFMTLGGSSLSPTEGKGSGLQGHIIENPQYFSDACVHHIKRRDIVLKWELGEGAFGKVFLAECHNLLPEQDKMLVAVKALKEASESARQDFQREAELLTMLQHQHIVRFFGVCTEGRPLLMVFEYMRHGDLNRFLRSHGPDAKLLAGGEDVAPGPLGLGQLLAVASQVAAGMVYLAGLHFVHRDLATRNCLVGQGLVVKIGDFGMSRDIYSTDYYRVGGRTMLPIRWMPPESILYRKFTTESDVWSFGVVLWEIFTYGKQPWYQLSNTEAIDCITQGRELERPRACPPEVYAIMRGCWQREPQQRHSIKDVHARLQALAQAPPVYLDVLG

CK1δ = target: T5, CK1δ (Homo sapiens, UniProt P48730); assay: as above; format: binding
T5 construct: purchased Eurofins DiscoverX Corporation
T5 sequence (P48730 whole entry): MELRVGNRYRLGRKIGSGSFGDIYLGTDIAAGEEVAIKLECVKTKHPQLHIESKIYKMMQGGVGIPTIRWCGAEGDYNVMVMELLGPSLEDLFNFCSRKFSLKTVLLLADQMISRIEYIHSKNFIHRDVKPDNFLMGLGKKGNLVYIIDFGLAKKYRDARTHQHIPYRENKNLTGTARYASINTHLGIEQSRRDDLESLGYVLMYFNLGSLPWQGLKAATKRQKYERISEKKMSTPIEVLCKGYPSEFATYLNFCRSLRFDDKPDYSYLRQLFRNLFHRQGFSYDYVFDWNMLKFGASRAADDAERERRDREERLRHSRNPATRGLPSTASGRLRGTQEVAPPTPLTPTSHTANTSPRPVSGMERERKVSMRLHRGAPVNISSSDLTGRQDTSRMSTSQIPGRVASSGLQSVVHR

Kinome scan = format: binding; conditions: 1000 nM, ZAP70 (Entrez gene symbol printed STK32C)
Experimental: (§2) The kinome scan assays were carried out at Eurofins DiscoverX Corporation. For kinome scan profiling of compound 1g, it was screened at 1μM against 96 kinases (N = 2 independent experiments). The results for binding interactions are reported as % inhibition, where higher values indicate strong affinity; see the Supporting Information, Table S1 for full kinome profile.

ABL1-nonphosphorylated = target: T6, ABL1-nonphosphorylated (Homo sapiens, UniProt P00519); assay: Kinome scan; format: binding; conditions: 1000 nM
T6 construct: purchased Eurofins DiscoverX Corporation
Experimental: as §2

ABL1-phosphorylated = target: T7, ABL1-phosphorylated (Homo sapiens, UniProt P00519); assay: Kinome scan; format: binding; conditions: 1000 nM
T7 construct: purchased Eurofins DiscoverX Corporation
Experimental: as §2

ACVR1B = target: T8, ACVR1B (Homo sapiens, UniProt P36896); assay: Kinome scan; format: binding; conditions: 1000 nM
T8 construct: purchased Eurofins DiscoverX Corporation
Experimental: as §2

ALK = target: T9, ALK (Homo sapiens, UniProt Q9UM73); assay: Kinome scan; format: binding; conditions: 1000 nM
T9 construct: purchased Eurofins DiscoverX Corporation
Experimental: as §2

AXL = target: T10, AXL (Homo sapiens, UniProt P30530); assay: Kinome scan; format: binding; conditions: 1000 nM
T10 construct: purchased Eurofins DiscoverX Corporation
Experimental: as §2

BRAF = target: T11, BRAF (Homo sapiens, UniProt P15056); assay: Kinome scan; format: binding; conditions: 1000 nM
T11 construct: purchased Eurofins DiscoverX Corporation
Experimental: as §2

BTK = target: T12, BTK (Homo sapiens, UniProt Q06187); assay: Kinome scan; format: binding; conditions: 1000 nM
T12 construct: purchased Eurofins DiscoverX Corporation
Experimental: as §2

CDK2 = target: T13, CDK2 (Homo sapiens, UniProt P24941); assay: Kinome scan; format: binding; conditions: 1000 nM
T13 construct: purchased Eurofins DiscoverX Corporation
Experimental: as §2

CDK3 = target: T14, CDK3 (Homo sapiens, UniProt Q00526); assay: Kinome scan; format: binding; conditions: 1000 nM
T14 construct: purchased Eurofins DiscoverX Corporation
Experimental: as §2

CSF1R = target: T15, CSF1R (Homo sapiens, UniProt P07333); assay: Kinome scan; format: binding; conditions: 1000 nM
T15 construct: purchased Eurofins DiscoverX Corporation
T15 sequence (P07333 20-972): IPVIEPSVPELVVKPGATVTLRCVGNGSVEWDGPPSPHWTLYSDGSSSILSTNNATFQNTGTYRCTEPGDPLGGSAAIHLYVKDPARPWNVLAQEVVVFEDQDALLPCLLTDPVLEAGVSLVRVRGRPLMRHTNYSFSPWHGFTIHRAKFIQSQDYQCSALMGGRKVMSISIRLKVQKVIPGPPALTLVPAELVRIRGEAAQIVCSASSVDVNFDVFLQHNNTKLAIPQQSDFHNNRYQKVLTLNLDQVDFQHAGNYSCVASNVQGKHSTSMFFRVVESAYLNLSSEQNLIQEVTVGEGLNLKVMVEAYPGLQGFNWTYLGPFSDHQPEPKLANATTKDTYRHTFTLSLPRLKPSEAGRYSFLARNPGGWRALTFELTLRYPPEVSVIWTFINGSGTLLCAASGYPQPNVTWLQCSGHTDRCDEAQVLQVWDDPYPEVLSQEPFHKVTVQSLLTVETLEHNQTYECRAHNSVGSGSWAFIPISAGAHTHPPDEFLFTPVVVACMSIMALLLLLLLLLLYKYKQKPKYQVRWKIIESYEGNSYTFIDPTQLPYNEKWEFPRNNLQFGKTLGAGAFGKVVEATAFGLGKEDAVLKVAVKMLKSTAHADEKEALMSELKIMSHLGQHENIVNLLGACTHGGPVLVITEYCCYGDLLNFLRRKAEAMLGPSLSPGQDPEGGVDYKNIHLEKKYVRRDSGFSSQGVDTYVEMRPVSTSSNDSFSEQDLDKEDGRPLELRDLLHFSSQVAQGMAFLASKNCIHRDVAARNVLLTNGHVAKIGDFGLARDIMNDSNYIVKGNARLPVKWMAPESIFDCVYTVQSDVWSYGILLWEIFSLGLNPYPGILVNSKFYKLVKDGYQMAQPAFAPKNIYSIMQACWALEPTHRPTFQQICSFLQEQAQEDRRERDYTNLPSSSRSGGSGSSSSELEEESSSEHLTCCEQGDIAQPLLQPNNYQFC
Experimental: as §2

DCAMKL1 = target: T16, DCAMKL1 (Homo sapiens, UniProt O15075); assay: Kinome scan; format: binding; conditions: 1000 nM
T16 construct: purchased Eurofins DiscoverX Corporation
Experimental: as §2

FAK = target: T17, FAK (Homo sapiens, UniProt Q05397); assay: Kinome scan; format: binding; conditions: 1000 nM
T17 construct: purchased Eurofins DiscoverX Corporation
Experimental: as §2

FGFR3 = target: T18, FGFR3 (Homo sapiens, UniProt P22607); assay: Kinome scan; format: binding; conditions: 1000 nM
T18 construct: purchased Eurofins DiscoverX Corporation
Experimental: as §2

FLT3 = target: T19, FLT3 (Homo sapiens, UniProt P36888); assay: Kinome scan; format: binding; conditions: 1000 nM
T19 construct: purchased Eurofins DiscoverX Corporation
Experimental: as §2

INSR = target: T20, INSR (Homo sapiens, UniProt P06213); assay: Kinome scan; format: binding; conditions: 1000 nM
T20 construct: purchased Eurofins DiscoverX Corporation
Experimental: as §2

[3] = target: T21, JAK3(JH1domain-catalytic) (Homo sapiens, UniProt P52333); assay: Kinome scan; format: binding; conditions: 1000 nM
T21 construct: JAK3(JH1domain-catalytic); purchased Eurofins DiscoverX Corporation
T21 sequence (P52333 822-1111 limits assumed): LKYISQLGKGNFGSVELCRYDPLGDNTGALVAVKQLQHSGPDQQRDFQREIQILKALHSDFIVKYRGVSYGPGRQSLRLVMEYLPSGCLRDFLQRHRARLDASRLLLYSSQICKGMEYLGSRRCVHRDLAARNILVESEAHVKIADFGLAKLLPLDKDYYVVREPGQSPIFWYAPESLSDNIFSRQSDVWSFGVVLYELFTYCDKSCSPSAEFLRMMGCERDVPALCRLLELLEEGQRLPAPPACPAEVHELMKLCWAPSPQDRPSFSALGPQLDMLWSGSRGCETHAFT
Experimental: as §2

KIT(D816V) = target: T22, KIT(D816V) (Homo sapiens, UniProt P10721, D816V); assay: Kinome scan; format: binding; conditions: 1000 nM
T22 construct: purchased Eurofins DiscoverX Corporation
Experimental: as §2

MEK1 = target: T23, MEK1 (Homo sapiens, UniProt Q02750); assay: Kinome scan; format: binding; conditions: 1000 nM
T23 construct: purchased Eurofins DiscoverX Corporation
Experimental: as §2

MEK2 = target: T24, MEK2 (Homo sapiens, UniProt P36507); assay: Kinome scan; format: binding; conditions: 1000 nM
T24 construct: purchased Eurofins DiscoverX Corporation
Experimental: as §2

MLK1 = target: T25, MLK1 (Homo sapiens, UniProt P80192); assay: Kinome scan; format: binding; conditions: 1000 nM
T25 construct: purchased Eurofins DiscoverX Corporation
Experimental: as §2

PDPK1 = target: T26, PDPK1 (Homo sapiens, UniProt O15530); assay: Kinome scan; format: binding; conditions: 1000 nM
T26 construct: purchased Eurofins DiscoverX Corporation
Experimental: as §2

PIM2 = target: T27, PIM2 (Homo sapiens, UniProt Q9P1W9); assay: Kinome scan; format: binding; conditions: 1000 nM
T27 construct: purchased Eurofins DiscoverX Corporation
Experimental: as §2

PLK3 = target: T28, PLK3 (Homo sapiens, UniProt Q9H4B4); assay: Kinome scan; format: binding; conditions: 1000 nM
T28 construct: purchased Eurofins DiscoverX Corporation
Experimental: as §2

ROCK2 = target: T29, ROCK2 (Homo sapiens, UniProt O75116); assay: Kinome scan; format: binding; conditions: 1000 nM
T29 construct: purchased Eurofins DiscoverX Corporation
T29 sequence (O75116 whole entry): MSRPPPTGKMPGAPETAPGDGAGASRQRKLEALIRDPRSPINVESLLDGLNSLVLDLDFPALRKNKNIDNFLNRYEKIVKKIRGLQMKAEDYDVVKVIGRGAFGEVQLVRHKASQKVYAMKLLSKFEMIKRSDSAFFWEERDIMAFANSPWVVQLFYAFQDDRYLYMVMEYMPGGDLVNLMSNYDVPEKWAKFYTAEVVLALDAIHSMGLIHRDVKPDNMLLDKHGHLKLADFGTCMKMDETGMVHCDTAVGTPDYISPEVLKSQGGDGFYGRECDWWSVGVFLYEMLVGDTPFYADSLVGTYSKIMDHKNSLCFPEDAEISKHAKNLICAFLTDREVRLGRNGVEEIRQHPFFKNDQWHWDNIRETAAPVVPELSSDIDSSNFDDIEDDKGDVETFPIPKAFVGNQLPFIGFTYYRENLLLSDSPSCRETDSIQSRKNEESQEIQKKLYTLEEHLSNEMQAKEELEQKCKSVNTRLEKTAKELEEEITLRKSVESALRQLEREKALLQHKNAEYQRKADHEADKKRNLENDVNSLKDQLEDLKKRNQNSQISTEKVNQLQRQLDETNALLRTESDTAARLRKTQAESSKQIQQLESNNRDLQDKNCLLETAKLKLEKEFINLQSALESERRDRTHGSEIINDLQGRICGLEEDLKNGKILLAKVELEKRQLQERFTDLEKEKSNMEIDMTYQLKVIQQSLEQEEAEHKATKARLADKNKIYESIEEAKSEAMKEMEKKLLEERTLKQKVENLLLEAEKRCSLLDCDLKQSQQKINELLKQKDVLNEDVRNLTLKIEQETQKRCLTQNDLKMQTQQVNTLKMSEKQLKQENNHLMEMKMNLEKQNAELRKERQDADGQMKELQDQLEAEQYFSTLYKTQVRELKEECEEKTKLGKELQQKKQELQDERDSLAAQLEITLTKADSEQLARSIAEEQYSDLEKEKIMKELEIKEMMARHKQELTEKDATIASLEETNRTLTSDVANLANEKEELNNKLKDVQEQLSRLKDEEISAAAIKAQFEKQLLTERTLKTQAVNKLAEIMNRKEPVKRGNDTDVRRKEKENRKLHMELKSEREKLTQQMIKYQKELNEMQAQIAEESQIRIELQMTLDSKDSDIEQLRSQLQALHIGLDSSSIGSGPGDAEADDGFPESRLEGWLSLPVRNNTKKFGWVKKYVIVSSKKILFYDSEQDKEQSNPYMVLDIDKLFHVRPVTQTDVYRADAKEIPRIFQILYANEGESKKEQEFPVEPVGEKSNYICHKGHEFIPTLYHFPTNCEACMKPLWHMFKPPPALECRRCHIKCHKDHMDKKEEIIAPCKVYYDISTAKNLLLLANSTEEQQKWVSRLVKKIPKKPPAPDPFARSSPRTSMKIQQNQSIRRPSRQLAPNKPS
Experimental: as §2

SRPK3 = target: T30, SRPK3 (Homo sapiens, UniProt Q9UPE1); assay: Kinome scan; format: binding; conditions: 1000 nM
T30 construct: purchased Eurofins DiscoverX Corporation
Experimental: as §2

TIE2 = target: T31, TIE2 (Homo sapiens, UniProt Q02763); assay: Kinome scan; format: binding; conditions: 1000 nM
T31 construct: purchased Eurofins DiscoverX Corporation
Experimental: as §2

[4] = 11-point 3-fold serial dilution

C#Cc1cn([C@@H]2S[C@H](CO)[C@@H](O)[C@H]2O)c2ncnc(N)c12 [Compound 1g, (2R,3R,4S,5R)-2-(4-Amino-5-ethynyl-7H-pyrrolo[2,3-d]pyrimidin-7-yl)-5-(hydroxymethyl)tetrahydrothiophene-3,4-diol]
pIC50 [1]: 6.82
Metabolic Stability (%) [2]: 82.3%
pIC50 (CYP1A2): < 4.70
pIC50 (CYP2C19): < 4.70
pIC50 (CYP2C9): < 4.70
pIC50 (TRKA; [4]): 6.83
pKi (TRKA; by Cheng-Prusoff equation): 6.53
pIC50 (CK1δ; [4]): 7.10
pKi (CK1δ; by Cheng-Prusoff equation): 7.10
% inhibition (Kinome scan): 0.0%
inhibition at 1 µM (ABL1-nonphosphorylated): 39%
inhibition at 1 µM (ABL1-phosphorylated): 35%
inhibition at 1 µM (ACVR1B): 29%
inhibition at 1 µM (ALK): 31%
inhibition at 1 µM (AXL): 7%
inhibition at 1 µM (BRAF): 0%
inhibition at 1 µM (BTK): 0%
inhibition at 1 µM (CDK2): 9%
inhibition at 1 µM (CDK3): 18%
inhibition at 1 µM (CSF1R): 20%
inhibition at 1 µM (DCAMKL1): 6%
inhibition at 1 µM (FAK): 0%
inhibition at 1 µM (FGFR3): 10%
inhibition at 1 µM (FLT3): 27%
inhibition at 1 µM (INSR): 5%
inhibition at 1 µM [3]: 0%
inhibition at 1 µM (KIT(D816V)): 22%
inhibition at 1 µM (MEK1): 74%
inhibition at 1 µM (MEK2): 69%
inhibition at 1 µM (MLK1): 7%
inhibition at 1 µM (PDPK1): 11%
inhibition at 1 µM (PIM2): 3%
inhibition at 1 µM (PLK3): 0%
inhibition at 1 µM (ROCK2): 27%
inhibition at 1 µM (SRPK3): 6%
inhibition at 1 µM (TIE2): 6%
